According to ChEMBL document CHEMBL4825663 (J Med Chem, 2021):
pIC50: −log10 of the molar value. In brackets after ≈: the same amount, converted by molar mass.

Biological target: T1, Broad substrate specificity ATP-binding cassette transporter ABCG2 (Homo sapiens, UniProt Q9UNQ0)
T1 sequence (Q9UNQ0 whole entry): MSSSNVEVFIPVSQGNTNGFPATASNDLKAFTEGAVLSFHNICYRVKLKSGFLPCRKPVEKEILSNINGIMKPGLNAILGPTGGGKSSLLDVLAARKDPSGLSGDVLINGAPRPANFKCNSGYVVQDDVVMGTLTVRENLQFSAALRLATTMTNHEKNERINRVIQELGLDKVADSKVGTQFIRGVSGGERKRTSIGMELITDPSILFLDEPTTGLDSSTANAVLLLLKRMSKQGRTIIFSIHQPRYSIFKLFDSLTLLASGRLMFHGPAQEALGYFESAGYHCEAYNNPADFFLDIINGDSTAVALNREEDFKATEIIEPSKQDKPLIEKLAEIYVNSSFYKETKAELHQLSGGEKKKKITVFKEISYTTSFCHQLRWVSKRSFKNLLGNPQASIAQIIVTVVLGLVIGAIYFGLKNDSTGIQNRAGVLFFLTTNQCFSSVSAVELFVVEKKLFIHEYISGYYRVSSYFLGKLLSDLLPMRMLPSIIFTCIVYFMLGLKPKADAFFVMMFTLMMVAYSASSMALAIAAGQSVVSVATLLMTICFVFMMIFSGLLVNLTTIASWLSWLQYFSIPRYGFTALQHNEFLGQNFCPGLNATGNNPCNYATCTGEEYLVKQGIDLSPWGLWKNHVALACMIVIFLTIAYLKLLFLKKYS
Assay: Inhibition of sulfasalazine-stimulated BCRP ATP ase activity (unknown origin)
Conditions: not given

Structure (SMILES) | pIC50
COc1cc2c(cc1OC)CN(CCc1ccc(NC(=O)c3cc(OC)c(OC)cc3NC(=O)c3cnc4ccccc4c3)cc1)CC2 | 6.74

Biological target: ATP-dependent translocase ABCB1 (Homo sapiens, UniProt P08183)
Sequence (P08183 whole entry): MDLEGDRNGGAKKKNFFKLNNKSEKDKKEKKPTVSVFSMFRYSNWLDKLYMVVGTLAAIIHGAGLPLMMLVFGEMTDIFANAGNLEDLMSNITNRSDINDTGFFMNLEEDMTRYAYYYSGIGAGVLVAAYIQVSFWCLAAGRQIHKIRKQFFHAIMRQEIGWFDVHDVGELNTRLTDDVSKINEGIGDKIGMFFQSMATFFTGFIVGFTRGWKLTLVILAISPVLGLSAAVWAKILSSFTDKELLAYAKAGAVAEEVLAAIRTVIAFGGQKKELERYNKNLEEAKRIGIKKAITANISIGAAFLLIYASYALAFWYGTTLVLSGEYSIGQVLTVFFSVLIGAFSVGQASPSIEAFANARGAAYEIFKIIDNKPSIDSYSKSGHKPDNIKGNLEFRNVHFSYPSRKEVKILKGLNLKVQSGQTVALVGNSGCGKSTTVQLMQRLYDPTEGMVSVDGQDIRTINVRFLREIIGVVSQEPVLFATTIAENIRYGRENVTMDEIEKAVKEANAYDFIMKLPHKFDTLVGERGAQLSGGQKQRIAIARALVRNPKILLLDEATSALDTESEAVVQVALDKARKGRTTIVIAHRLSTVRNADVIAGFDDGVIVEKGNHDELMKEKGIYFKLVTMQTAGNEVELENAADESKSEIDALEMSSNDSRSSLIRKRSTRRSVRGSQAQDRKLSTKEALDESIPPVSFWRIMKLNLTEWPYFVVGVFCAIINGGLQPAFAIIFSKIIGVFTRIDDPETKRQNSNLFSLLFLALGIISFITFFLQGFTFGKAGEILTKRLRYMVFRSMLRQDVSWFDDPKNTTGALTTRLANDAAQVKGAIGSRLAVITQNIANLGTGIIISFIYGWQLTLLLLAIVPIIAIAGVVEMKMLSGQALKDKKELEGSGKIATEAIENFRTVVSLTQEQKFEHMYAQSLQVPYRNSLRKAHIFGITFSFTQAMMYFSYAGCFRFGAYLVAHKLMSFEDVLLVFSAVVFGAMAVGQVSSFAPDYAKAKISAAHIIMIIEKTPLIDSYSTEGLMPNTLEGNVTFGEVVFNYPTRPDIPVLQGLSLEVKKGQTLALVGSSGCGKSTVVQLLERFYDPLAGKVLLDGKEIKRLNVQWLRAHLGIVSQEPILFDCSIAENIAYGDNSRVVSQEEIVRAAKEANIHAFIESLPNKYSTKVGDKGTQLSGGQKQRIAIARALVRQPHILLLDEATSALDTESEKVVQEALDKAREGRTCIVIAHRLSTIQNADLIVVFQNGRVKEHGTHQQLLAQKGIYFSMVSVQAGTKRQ
Assay: Inhibition of paclitaxel stimulated- P-gp ATPase activity (unknown origin)
Conditions: not given

Structure (SMILES) | pIC50
COc1cc2c(cc1OC)CN(CCc1ccc(NC(=O)c3cc(OC)c(OC)cc3NC(=O)c3cnc4ccccc4c3)cc1)CC2 | 7.49

System: not listed separately
Assay: Aqueous solubility of compound at pH 5.5
Format: physicochemical
Conditions: aqueous solution

Structure (SMILES) | solubility [µg/mL]
COc1cc2c(cc1OC)CN(CCc1ccc(NC(=O)c3cc(OC)c(OC)cc3NC(=O)c3cnc4ccccc4c3)cc1)CC2 | 2500 (≈ 3870 µM)

System: not listed separately
Assay: Aqueous solubility of compound at neutral pH
Format: physicochemical
Conditions: aqueous solution

Structure (SMILES) | solubility [µg/mL]
COc1cc2c(cc1OC)CN(CCc1ccc(NC(=O)c3cccc4c(=O)c5cccc(OC)c5[nH]c34)cc1)CC2 | 0.123 (≈ 0.218 µM)

System: MES-SA/Dx5
Assay: Selectivity index, ratio of EC50 for inhibition of P-gp (unknown origin) expressed in MES-SA/DX5 cells assessed as increase in paclitaxel-induced cytotoxicity in absence of compound to EC50 for inhibition of P-gp (unknown origin) expressed in MES-SA/DX5 cells assessed as increase in paclitaxel-induced cytotoxicity in presence of compound
Format: cell-based
Conditions: Homo sapiens

Structure (SMILES) | Ratio EC50
COc1cc2c(cc1OC)CN(CCc1ccc(-n3nnc(-c4cc(OC)c(OC)cc4NC(=O)c4ccc5ccccc5c4)n3)cc1)CC2 | 2.6
COc1cc2c(cc1OC)CN(CCc1ccc(-n3nnc(-c4cc(OC)c(OC)cc4NC(=O)c4cnc5ccccc5c4)n3)cc1)CC2 | 20.3
COc1cc2c(cc1OC)CN(CCc1ccc(-n3nnc(-c4cc(OC)c(OC)cc4NC(=O)c4nccc5ccccc45)n3)cc1)CC2 | 1.8
COc1cc2c(cc1OC)CN(CCc1ccc(-n3nnc(-c4cc(OC)c(OC)cc4NC(=O)c4coc5ccccc5c4=O)n3)cc1)CC2 | 2.1
COc1cc2c(cc1OC)CN(CCc1ccc(-n3nnc(-c4cc(OC)c(OC)cc4NC(=O)c4cccc5cccnc45)n3)cc1)CC2 | 4.3
COc1cc2c(cc1OC)CN(CCc1ccc(-n3nnc(-c4cc(OC)c(OC)cc4NC(=O)c4ccoc4)n3)cc1)CC2 | 3.5
COc1cc2c(cc1OC)CN(CCc1ccc(-n3nnc(-c4cc(OC)c(OC)cc4NC(=O)c4ccc5ccccc5n4)n3)cc1)CC2 | 2.7
COc1cc2c(cc1OC)CN(CCc1ccc(-n3nnc(-c4cc(OC)c(OC)cc4NC(=O)c4cc(=O)c5cc(F)ccc5o4)n3)cc1)CC2 | 39.3
COc1cc2c(cc1OC)CN(CCc1ccc(-n3nnc(-c4cc(OC)c(OC)cc4NC(=O)c4cncc5ccccc45)n3)cc1)CC2 | 3.3
COc1cc2c(cc1OC)CN(CCc1ccc(-n3nnc(-c4cc(OC)c(OC)cc4NC(=O)c4ccc(F)c(F)c4)n3)cc1)CC2 | 3.7
COc1cc2c(cc1OC)CN(CCc1ccc(-n3nnc(-c4cc(OC)c(OC)cc4NC(=O)c4ccsc4)n3)cc1)CC2 | 4.5
COc1cc2c(cc1OC)CN(CCc1ccc(-n3nnc(-c4cc(OC)c(OC)cc4NC(=O)c4ccccc4)n3)cc1)CC2 | 3.4
COc1cc2c(cc1OC)CN(CCc1ccc(-n3nnc(-c4cc(OC)c(OC)cc4NC(=O)c4cc5ccccc5cn4)n3)cc1)CC2 | 3.5
COc1cc2c(cc1OC)CN(CCc1ccc(-n3nnc(-c4cc(OC)c(OC)cc4NC(=O)c4cnccn4)n3)cc1)CC2 | 3
COc1cc2c(cc1OC)CN(CCc1ccc(-n3nnc(-c4cc(OC)c(OC)cc4NC(=O)c4cc(=O)c5c(OC)cccc5o4)n3)cc1)CC2 | 49.9
COc1cc2c(cc1OC)CN(CCc1ccc(-n3nnc(-c4cc(OC)c(OC)cc4NC(=O)c4cc(=O)c5cc(C)ccc5o4)n3)cc1)CC2 | 73.4
COc1cc2c(cc1OC)CN(CCc1ccc(-n3nnc(-c4cc(OC)c(OC)cc4NC(=O)c4cccnc4)n3)cc1)CC2 | 3

System: not listed separately
Assay: Apparent permeability from apical to basolateral side in MDCK-II cells after 120 mins by LC-MS/MS analysis
Format: ADME, cell-based, Canis lupus familiaris
Conditions: dog

Structure (SMILES) | Papp A→B at 2 h [×10⁻⁶ cm/s]
O[C@@H](COc1cccc2ncccc12)CN1CCN([C@@H]2c3ccccc3[C@@H]3[C@H](c4ccccc42)C3(F)F)CC1 [ZOSUQUIDAR] | 1.1
COc1cc2c(cc1OC)CN(CCc1ccc(NC(=O)c3cc(OC)c(OC)cc3NC(=O)c3cnc4ccccc4c3)cc1)CC2 | 1.1
COc1cc2c(cc1OC)CN(CCc1ccc(NC(=O)c3cccc4c(=O)c5cccc(OC)c5[nH]c34)cc1)CC2 | 0.1
